From PubChem BioAssay AID248 (DTP/NCI, 2004)
Several values for one entry are separate records, joined by “and”; a condition that tells them apart may be missing. Equal entries are not always repeated. Toxic doses and inconclusive results are not listed.

System: L1210 leukemia ip in BDF1 mice, survival T/C
Test: NCI In Vivo Anticancer Drug Screen. Data for tumor model L1210 Leukemia (intraperitoneal) in B6D2F1 (BDF1) mice
Details: endpoint: mean survival time, higher = longer survival
In short: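 Tumor cells were implanted, animals were treated, and survival was followed. The result divides the treated measurement by the vehicle-control measurement.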

With `CC(=O)OCC1OC(n2ncc(=O)[nH]c2=O)C(OC(C)=O)C1OC(C)=O` (stereo not drawn) the T/C (dose: 5.3 mg/kg/injection, schedule: Q01DX Z (oral), vehicle: carboxymethylcellulose (CMC)) was 122 % of control, the T/C (dose: 8.0 mg/kg/injection, schedule: Q01DX Z (oral), vehicle: carboxymethylcellulose (CMC)) was 119 % of control and the T/C (dose: 8.0 mg/kg/injection, schedule: Q03HX024 (ip), vehicle: other) was 104 % of control. The T/C (dose: 8.0 mg/kg/injection, schedule: Q03HX024 (oral), vehicle: other) was 117 % of control, the T/C (dose: 8.8 mg/kg/injection, schedule: Q01DX Z (ip), vehicle: carboxymethylcellulose (CMC)) was 114 % of control and the T/C (dose: 10.0 mg/kg/injection, schedule: Q01DX Z (im), vehicle: carboxymethylcellulose (CMC)) was 121 % of control. The T/C (dose: 11.66 mg/kg/injection, schedule: Q#B X Z (ip), vehicle: carboxymethylcellulose (CMC)) was 111 % of control, the T/C (dose: 13.0 mg/kg/injection, schedule: Q01DX Z (ip), vehicle: carboxymethylcellulose (CMC)) was 118 % of control and the T/C (dose: 15.0 mg/kg/injection, schedule: Q01DX Z (im), vehicle: carboxymethylcellulose (CMC)) was 122 % of control. The T/C (dose: 15.0 mg/kg/injection, schedule: Q01DX Z (sc), vehicle: carboxymethylcellulose (CMC)) was 116 % of control, the T/C (dose: 16.0 mg/kg/injection, schedule: Q03HX008 (ip), vehicle: other) was 103 % of control and the T/C (dose: 16.0 mg/kg/injection, schedule: Q03HX016 (ip), vehicle: other) was 105 % of control. For the same molecule, the T/C (dose: 18.33 mg/kg/injection, schedule: Q#B X Z (ip), vehicle: carboxymethylcellulose (CMC)) was 113 % of control, the T/C (dose: 20.0 mg/kg/injection, schedule: Q01DX Z (ip), vehicle: carboxymethylcellulose (CMC)) was 120 % of control and the T/C (dose: 23.0 mg/kg/injection, schedule: Q01DX Z (im), vehicle: carboxymethylcellulose (CMC)) was 121 % of control. For the same molecule, the T/C (dose: 26.66 mg/kg/injection, schedule: Q#B X Z (ip), vehicle: carboxymethylcellulose (CMC)) was 116 % of control, the T/C (dose: 31.0 mg/kg/injection, schedule: Q01DX Z (ip), vehicle: carboxymethylcellulose (CMC)) was 120 % of control and the T/C (dose: 32.0 mg/kg/injection, schedule: Q03HX008 (ip), vehicle: other) was 102 % of control. The T/C (dose: 32.0 mg/kg/injection, schedule: Q03HX016 (ip), vehicle: other) was 103 % of control, the T/C (dose: 32.0 mg/kg/injection, schedule: Q03HX024 (ip), vehicle: other) was 118 % of control and the T/C (dose: 32.0 mg/kg/injection, schedule: Q03HX024 (oral), vehicle: other) was 122 % of control. The T/C (dose: 61.66 mg/kg/injection, schedule: Q#B X Z (ip), vehicle: carboxymethylcellulose (CMC)) was 120 % of control, the T/C (dose: 62.0 mg/kg/injection, schedule: Q01DX Z (oral), vehicle: carboxymethylcellulose (CMC)) was 157 % of control and the T/C (dose: 64.0 mg/kg/injection, schedule: Q03HX008 (ip), vehicle: other) was 108 % of control. The T/C (dose: 64.0 mg/kg/injection, schedule: Q03HX016 (ip), vehicle: other) was 103 % of control, the T/C (dose: 64.0 mg/kg/injection, schedule: Q04DX003 (ip), vehicle: other) was 103 % of control and the T/C (dose: 64.0 mg/kg/injection, schedule: Q04DX003 (oral), vehicle: other) was 109 % of control. For the same molecule, the T/C (dose: 85.0 mg/kg/injection, schedule: Q01DX Z (im), vehicle: carboxymethylcellulose (CMC)) was 122 % of control, the T/C (dose: 93.33 mg/kg/injection, schedule: Q#B X Z (ip), vehicle: carboxymethylcellulose (CMC)) was 124 % of control and 86 % of control and the T/C (dose: 125.0 mg/kg/injection, schedule: Q01DX001 (ip), vehicle: carboxymethylcellulose (CMC)) was 102 % of control and 107 % of control. For the same molecule, the T/C (dose: 125.0 mg/kg/injection, schedule: Q01DX006 (iv), vehicle: carboxymethylcellulose (CMC)) was 118 % of control, the T/C (dose: 125.0 mg/kg/injection, schedule: Q03DX Z (ip), vehicle: carboxymethylcellulose (CMC)) was 121 % of control and the T/C (dose: 125.0 mg/kg/injection, schedule: Q07DX Z (ip), vehicle: carboxymethylcellulose (CMC)) was 110 % of control. For the same molecule, the T/C (dose: 128.0 mg/kg/injection, schedule: Q01DX001 (ip), vehicle: other) was 105 % of control, the T/C (dose: 128.0 mg/kg/injection, schedule: Q03HX008 (ip), vehicle: other) was 109 % of control and the T/C (dose: 128.0 mg/kg/injection, schedule: Q03HX016 (ip), vehicle: other) was 119 % of control. For the same molecule, the T/C (dose: 128.0 mg/kg/injection, schedule: Q04DX003 (ip), vehicle: other) was 110 % of control, the T/C (dose: 128.0 mg/kg/injection, schedule: Q04DX003 (oral), vehicle: other) was 101 % of control and the T/C (dose: 128.0 mg/kg/injection, schedule: Q08DX002 (ip), vehicle: other) was 101 % of control. For the same molecule, the T/C (dose: 166.66 mg/kg/injection, schedule: Q#B X Z (ip), vehicle: carboxymethylcellulose (CMC)) was 157 % of control, the T/C (dose: 185.0 mg/kg/injection, schedule: Q01DX Z (sc), vehicle: carboxymethylcellulose (CMC)) was 121 % of control and the T/C (dose: 250.0 mg/kg/injection, schedule: Q01DX001 (ip), vehicle: carboxymethylcellulose (CMC)) was 100 % of control and 103 % of control. For the same molecule, the T/C (dose: 250.0 mg/kg/injection, schedule: Q01DX Z (im), vehicle: carboxymethylcellulose (CMC)) was 161 % of control, the T/C (dose: 250.0 mg/kg/injection, schedule: Q03DX Z (ip), vehicle: carboxymethylcellulose (CMC)) was 122 % of control and the T/C (dose: 250.0 mg/kg/injection, schedule: Q07DX Z (ip), vehicle: carboxymethylcellulose (CMC)) was 115 % of control. For the same molecule, the T/C (dose: 256.0 mg/kg/injection, schedule: Q01DX001 (ip), vehicle: other) was 97 % of control, the T/C (dose: 256.0 mg/kg/injection, schedule: Q04DX003 (ip), vehicle: other) was 106 % of control and the T/C (dose: 256.0 mg/kg/injection, schedule: Q04DX003 (oral), vehicle: other) was 120 % of control. For the same molecule, the T/C (dose: 256.0 mg/kg/injection, schedule: Q08DX002 (ip), vehicle: other) was 96 % of control, the T/C (dose: 280.0 mg/kg/injection, schedule: Q01DX Z (sc), vehicle: carboxymethylcellulose (CMC)) was 151 % of control and the T/C (dose: 420.0 mg/kg/injection, schedule: Q01DX Z (sc), vehicle: carboxymethylcellulose (CMC)) was 108 % of control. For the same molecule, the T/C (dose: 450.0 mg/kg/injection, schedule: Q01DX010 (ip), vehicle: saline) was 116 % of control, the T/C (dose: 500.0 mg/kg/injection, schedule: Q01DX001 (ip), vehicle: carboxymethylcellulose (CMC)) was 102 % of control and 113 % of control and the T/C (dose: 500.0 mg/kg/injection, schedule: Q01DX Z (im), vehicle: carboxymethylcellulose (CMC)) was 150 % of control. For the same molecule, the T/C (dose: 500.0 mg/kg/injection, schedule: Q01DX Z (sc), vehicle: carboxymethylcellulose (CMC)) was 154 % of control, the T/C (dose: 500.0 mg/kg/injection, schedule: Q03DX Z (ip), vehicle: carboxymethylcellulose (CMC)) was 121 % of control and the T/C (dose: 500.0 mg/kg/injection, schedule: Q07DX Z (ip), vehicle: carboxymethylcellulose (CMC)) was 113 % of control. The T/C (dose: 512.0 mg/kg/injection, schedule: Q01DX001 (ip), vehicle: other) was 104 % of control, the T/C (dose: 512.0 mg/kg/injection, schedule: Q01DX009 (oral), vehicle: other) was 151 % of control and the T/C (dose: 512.0 mg/kg/injection, schedule: Q04DX003 (ip), vehicle: other) was 106 % of control. For the same molecule, the T/C (dose: 512.0 mg/kg/injection, schedule: Q08DX002 (ip), vehicle: other) was 105 % of control, the T/C (dose: 675.0 mg/kg/injection, schedule: Q01DX010 (ip), vehicle: saline) was 93 % of control and the T/C (dose: 1000.0 mg/kg/injection, schedule: Q01DX001 (ip), vehicle: carboxymethylcellulose (CMC)) was 97 % of control and 122 % of control. For the same molecule, the T/C (dose: 1000.0 mg/kg/injection, schedule: Q01DX Z (im), vehicle: carboxymethylcellulose (CMC)) was 158 % of control, the T/C (dose: 1000.0 mg/kg/injection, schedule: Q01DX Z (ip), vehicle: carboxymethylcellulose (CMC)) was 102 % of control and the T/C (dose: 1000.0 mg/kg/injection, schedule: Q01DX Z (oral), vehicle: carboxymethylcellulose (CMC)) was 86 % of control. The T/C (dose: 1000.0 mg/kg/injection, schedule: Q01DX Z (sc), vehicle: carboxymethylcellulose (CMC)) was 117 % of control, the T/C (dose: 1000.0 mg/kg/injection, schedule: Q07DX Z (ip), vehicle: carboxymethylcellulose (CMC)) was 113 % of control and the T/C (dose: 1014.0 mg/kg/injection, schedule: Q01DX010 (ip), vehicle: saline) was 100 % of control. The T/C (dose: 1024.0 mg/kg/injection, schedule: Q01DX001 (ip), vehicle: other) was 101 % of control and the T/C (dose: 1024.0 mg/kg/injection, schedule: Q08DX002 (ip), vehicle: other) was 106 % of control.

In the case of `COc1ccc(OC)c(/C=C/c2ccc(NC(=O)C(Cl)(Cl)Cl)cc2)c1`, the T/C (dose: 100.0 mg/kg/injection, schedule: Q01DX009 (ip), vehicle: Klucel (hydroxypropylcellulose) (HPC)) is reported as 98 % of control, the T/C (dose: 200.0 mg/kg/injection, schedule: Q01DX009 (ip), vehicle: Klucel (hydroxypropylcellulose) (HPC)) is reported as 93 % of control and the T/C (dose: 400.0 mg/kg/injection, schedule: Q01DX009 (ip), vehicle: Klucel (hydroxypropylcellulose) (HPC)) is reported as 102 % of control.

In the case of `CC(C)(O)c1cccc2c(C(C)(C)O)cccc12`, the T/C (dose: 50.0 mg/kg/injection, schedule: Q01DX001 (ip), vehicle: carboxymethylcellulose (CMC)) is reported as 102 % of control, the T/C (dose: 100.0 mg/kg/injection, schedule: Q01DX001 (ip), vehicle: carboxymethylcellulose (CMC)) is reported as 102 % of control and the T/C (dose: 200.0 mg/kg/injection, schedule: Q01DX001 (ip), vehicle: carboxymethylcellulose (CMC)) is reported as 94 % of control. The T/C (dose: 400.0 mg/kg/injection, schedule: Q01DX001 (ip), vehicle: carboxymethylcellulose (CMC)) was 105 % of control.
